From article PMC4634248 (Influenza and Other Respiratory Viruses, 2013) come the findings set out here.

The test has as its system NA activity of A(H1N1)pdm09 viruses with the H275Y substitution. Format: biochemical, influenza A(H1N1)pdm09 virus.

“Also recorded” adds a separate entry of the source.

Turning to `[H]/N=C(\N)N[C@H]1C=C(C(=O)O)O[C@@H]([C@H](OC)[C@H](O)CO)[C@@H]1NC(C)=O` [laninamivir], the “IC50 values of H275Y mutants relative to those of viruses with 275H” value is “comparable” and the “resistance / sensitivity of H275Y mutant viruses to the NA inhibitor” value (“resistance / sensitivity … to the NA inhibitor” for short) is “sensitive”.
As to `CCC(CC)O[C@@H]1C=C(C(=O)O)C[C@H](N)[C@H]1NC(C)=O` [oseltamivir, oseltamivir carboxylate], the “fold increased IC50 values (decreased susceptibility) of H275Y mutant viruses compared with 275H” value is “about 400 fold” and the “resistance / sensitivity … to the NA inhibitor” value is “resistance; also recorded: resistant”.
For `CCC(CC)[C@H](NC(C)=O)[C@@H]1[C@H](O)[C@@H](C(=O)O)C[C@H]1N=C(N)N` [peramivir] the same measures were approximately 140 fold and “resistance; also recorded: resistant”.
Turning to `CC(=O)N[C@H]1[C@H]([C@H](O)[C@H](O)CO)OC(C(=O)O)=C[C@@H]1N=C(N)N` [zanamivir], the “IC50 values of H275Y mutants relative to those of viruses with 275H” value is “comparable” and the “resistance / sensitivity … to the NA inhibitor” value is “sensitive”.
